Results: patent US5789405A, “Oxaspiro(2,5)octane derivative” (Fujisawa Pharmaceutical Co., Ltd., priority 1988, dated 1998)
Values after ≈ are worked out from the molar mass of the structure shown.

Test system: Endothelial cells from human umbilical vein (HUVEC)
Experiment: Test effect on endothelial cell growth (HUVEC proliferation, MTT method)
Format: cell-based
Conditions: 120 h, 5 days incubation at 37° C., graphically determined, read-out: IC50 (50% inhibition doses of the test compound to endothelial cell growth)
Method: Test effect of the object compound (I) on endothelial cell growth
Endothelial cells from human umbilical vein (HUVEC) were used for this experiment.
HUVEC (2×10^3 cells per well) were plated on 96 wells microtiter plates previously coated with human fibronectin and incubated with MCDB 151 [GIBCO] medium supplemented with 15% FBS (fetal bovine serum), […] ECGS (Endothelial cell growth supplement), 10 μg/ml heparin in the presence of the test compound at 37° C. under 5% CO2 in the air for 5 days. At the end of the experiments, the growth rate of HUVEC was measured according to the MTT method [Cancer treatment Reports 71, 1141~1149 (1987)].
IC50 values [50% inhibition doses of the test compound to endothelial cell growth) of the test compound were graphically determined and are shown in the following table.

With `CNC(=O)OC1CCC2(CO2)C(C2(C)OC2CC=C(C)C)C1OC` (centres unmarked) the IC50 was 0.21 ng/mL (≈ 0.619 nM).
Compound `COC1C(OC(=O)N2CCOCC2)CCC2(CO2)C1C1(C)OC1CC=C(C)C` (centres unmarked) has an IC50 of 0.62 ng/mL (≈ 1.57 nM).
